Data taken from patent publication US4889872A, “2,3,5,6-Tetrafluorobenzyl (+) 1r-trans-2,2-dimethyl-3-(2,2-dichlorovinyl)-cyclopropanecarboxylate” (priority 1987, dated 1989).
Like-named read-outs stand apart in the source and are kept apart here.

How the values were obtained:
insects [1] = settings: prior art, ester alone; cited from earlier work
Aedes aegypti = assay: Vapor test (knock-down action on mosquitoes, electroevaporator ovens); assay type: in vivo; settings: compound II 10 mg
Protocol: Small cellulose tablets containing active compound according to formulation examples Nos. 9 and 10 are placed on the hotplate of small electroevaporator ovens, producing temperatures of 130° and 160° C. The instruments ae connected to the mains via a socket and heated up in living rooms of equal size and equally equipped.
During the experiment, one window in the rooms remained open to the outside in the tilted position. Immediately after switching on the ovens, 2 wire baskets each containing 20 mosquitoes of the Aedes aegypti species, 3-4 days old, were hung in each room. The knock-down action on the mosquitoes was checked half or one hour later. After the oven had burnt for a longer period, fresh mosquitoes were again introduced in the same way into the rooms at certain times, and the activity was again tested after half or one hour. The temperature of the heating oven, the amounts of reactive compounds, the heating duration, the test time and the knockdown effect can be seen from the table below.
(%Knock-down: percentage of mosquitoes which have fallen onto their backs).
In the present test, active compounds I (according to the invention) and II ((-)1R-trans-isomer of fenfluthrin) were employed.

insects [2] = assay: insecticidal / biological action (general statements); assay type: in vivo
[3] = system: Musca domestica, resistant; assay: Aerosol Test (knock-down effect on resistant flies, 30 m^3 room); assay type: in vivo
Excerpt: In each experiment, 3 wire cages each containing 20 resistant male Musca domestica are suspended in rooms of volume 30 m^3. The room is then sprayed using spray cans containing active compounds I, II, III and IV or active compound mixtures I+IV; II+IV; V+VI; V+VI+I and V+VI+II according to formulation Examples 1-9.
The amount of spray applied per spray can is 12.4 g. After spraying, the rooms are sealed and the action of the spray mist on the flies observed continuously through windows. The number of minutes after which 50 and 95% of the animals had fallen onto their backs (knock-down effect) is recorded. After a tesst duration of 1 hour, the percentage of knocked-downanimals is subsequently determined. The table below contains the values determined.

[4] = oral toxicity to mammals (LD50, rats); assay type: in vivo; settings: rat, in vivo; male rats; oral
rats [5] = assay: oral toxicity to mammals (LD50, rats); assay type: in vivo
rats [6] = settings: cited from earlier work
flies = settings: versus mixture of equal parts of the 2,3,5,6-tetrafluorobenzyl and 3,5,6-trifluorobenzyl ester; cited from earlier work
[7] = compound I 10 mg, oven 130 °C, animals introduced after 0 h heating, residence 1 h
[8] = compound I 10 mg, oven 130 °C, animals introduced after 8 h heating, residence 1 h
[9] = compound I 10 mg, oven 130 °C, animals introduced after 26 h heating, residence 1 h
[10] = compound I 10 mg, oven 130 °C, animals introduced after 50 h heating, residence 1 h
[11] = compound I 10 mg, oven 160 °C, animals introduced after 0 h heating, residence 1 h
[12] = compound I 10 mg, oven 160 °C, animals introduced after 8 h heating, residence 1 h
[13] = compound I 10 mg, oven 160 °C, animals introduced after 26 h heating, residence 1 h
[14] = compound I 20 mg, oven 130 °C, animals introduced after 0 h heating, residence 1 h
[15] = compound I 20 mg, oven 130 °C, animals introduced after 8 h heating, residence 1 h
[16] = compound I 20 mg, oven 130 °C, animals introduced after 26 h heating, residence 1 h
[17] = compound I 20 mg, oven 130 °C, animals introduced after 50 h heating, residence 1 h
[18] = compound I 20 mg, oven 160 °C, animals introduced after 0 h heating, residence 1 h
[19] = compound I 20 mg, oven 160 °C, animals introduced after 8 h heating, residence 1 h
[20] = compound I 20 mg, oven 160 °C, animals introduced after 28 h heating, residence 1 h
[21] = compound I 30 mg, oven 130 °C, animals introduced after 0 h heating, residence 0.5 h
[22] = compound I 30 mg, oven 130 °C, animals introduced after 8 h heating, residence 0.5 h
[23] = compound I 30 mg, oven 130 °C, animals introduced after 26 h heating, residence 0.5 h
[24] = compound I 30 mg, oven 130 °C, animals introduced after 50 h heating, residence 0.5 h
[25] = compound I 30 mg, oven 160 °C, animals introduced after 0 h heating, residence 0.5 h
[26] = compound I 30 mg, oven 160 °C, animals introduced after 8 h heating, residence 0.5 h
[27] = compound I 30 mg, oven 160 °C, animals introduced after 28 h heating, residence 0.5 h
[28] = compound I 30 mg, oven 160 °C, animals introduced after 32 h heating, residence 0.5 h

| Compound | % knock-down (Aedes aegypti; [7]) [%] | % knock-down (Aedes aegypti; [8]) [%] | % knock-down (Aedes aegypti; [9]) [%] | % knock-down (Aedes aegypti; [10]) [%] | % knock-down (Aedes aegypti; [11]) [%] | % knock-down (Aedes aegypti; [12]) [%] | % knock-down (Aedes aegypti; [13]) [%] | % knock-down (Aedes aegypti; [14]) [%] | % knock-down (Aedes aegypti; [15]) [%] | % knock-down (Aedes aegypti; [16]) [%] | % knock-down (Aedes aegypti; [17]) [%] | % knock-down (Aedes aegypti; [18]) [%] | % knock-down (Aedes aegypti; [19]) [%] | % knock-down (Aedes aegypti; [20]) [%] | % knock-down (Aedes aegypti; [21]) [%] | % knock-down (Aedes aegypti; [22]) [%] | % knock-down (Aedes aegypti; [23]) [%] | 50% knock-down after minutes ([3]; 5 mg/30 m^3) [min] | 95% knock-down after minutes ([3]; 5 mg/30 m^3) [min] | % knock-down after 1 hour ([3]; 5 mg/30 m^3, 1 hour) [%] | other results |
| --- | --- | --- | --- | --- | --- | --- | --- | --- | --- | --- | --- | --- | --- | --- | --- | --- | --- | --- | --- | --- | --- |
| CC1(C)C(C=C(Cl)Cl)C1C(=O)OCc1c(F)c(F)cc(F)c1F (stereo not shown) [tetrafluorobenzyl ester] |  |  |  |  |  |  |  |  |  |  |  |  |  |  |  |  |  |  |  |  | insecticidal action (insects [1]): good insecticidal action |
| CC1(C)[C@H](C=C(Cl)Cl)[C@H]1C(=O)OCc1c(F)c(F)cc(F)c1F [Active compound I, 2,3,5,6-Tetrafluoro-benzyl (+)1R-trans-2,2-dimethyl-3-(2,2-dichlorovinyl)-cyclopropanecarboxylate] | 100 | 100 | 100 | 85 | 100 | 100 | 55 | 100 | 100 | 100 | 100 | 100 | 100 | 100 | 97 | 100 | 100 | 22 | 47 | 96 | % knock-down (Aedes aegypti; [24]): 92%; % knock-down (Aedes aegypti; [25]): 100%; % knock-down (Aedes aegypti; [26]): 100%; % knock-down (Aedes aegypti; [27]): 100%; % knock-down (Aedes aegypti; [28]): 100%; insecticidal action (insects [2]; compared to pentafluorobenzyl (-)1R-trans ester, at the same or an only slightly higher dosage): comparable insecticidal action; 50% knock-down after minutes ([3]; 7.5 mg/30 m^3): 18 min; 95% knock-down after minutes ([3]; 7.5 mg/30 m^3): 33 min; % knock-down after 1 hour ([3]; 7.5 mg/30 m^3, 1 hour): 99%; LD50 [4]: > 5000 mg/kg; therapeutic index (rats [5]; gap between effective dose for the pest and toxicity to mammals): surprisingly favorable therapeutic index; toxicity to mammals lower than that of pentafluorobenzyl (-)1R-trans ester (rats [5]; ratio versus pentafluorobenzyl (-)1R-trans-2,2-dimethyl-3-(2,2-dichlorovinyl)-cyclopropanecarboxylate): 50 times; toxicity to mammals lower than that of tetrafluorobenzyl cis/trans ester (rats [5]; ratio versus tetrafluorobenzyl cis/trans-2,2-dimethyl-3-(2,2-dichlorovinyl)-cyclopropanecarboxylate): more than 250 times |
| CC1(C)[C@H](C=C(Cl)Cl)[C@H]1C(=O)OCc1c(F)c(F)c(F)c(F)c1F [Active compound II, pentafluorobenzyl (-)1R-trans-2,2-dimethyl-3-(2,2-dichlorovinyl)-cyclopropanecarboxylate] | 100 | 100 | 100 | 97 | 100 | 100 | 40 | 100 | 100 | 100 | 95 | 100 | 100 | 92 | 65 | 100 | 97 | 19 | 37 | 99 | % knock-down (Aedes aegypti; [24]): 75%; % knock-down (Aedes aegypti; [25]): 45%; % knock-down (Aedes aegypti; [26]): 100%; % knock-down (Aedes aegypti; [27]): 92%; % knock-down (Aedes aegypti; [28]): 47%; oral LD50 (rats [6]; rats): 90 to 105 mg/kg |
| CC1(C)C(C=C(Cl)Cl)C1C(=O)OCc1c(F)c(F)cc(F)c1F (racemic) [Active compound III, tetrafluorobenzyl cis/trans-2,2-dimethyl-3-(2,2-dichlorovinyl)-cyclopropanecarboxylate] |  |  |  |  |  |  |  |  |  |  |  |  |  |  |  |  |  | 38 | 52 | 97 | biological action (insects [2]; compared with tetrafluorobenzyl (+)1R-trans ester according to the invention): lower biological action; oral LD50 (rats [6]; male rats): 10 to 25 mg/kg |
| COP(=O)(OC)OC=C(Cl)Cl [Active compound IV, dichlorvos] |  |  |  |  |  |  |  |  |  |  |  |  |  |  |  |  |  |  |  |  | % knock-down after 1 hour ([3]; 124 mg/30 m^3, 1 hour): 22% |
| CC1(C)C(C=C(Cl)Cl)C1C(=O)OCc1c(F)c(F)c(F)c(F)c1F (stereo not shown) [pentafluorobenzyl ester] |  |  |  |  |  |  |  |  |  |  |  |  |  |  |  |  |  |  |  |  | amount that killed flies in the same time (flies): only a fifteenth of it killed flies in the same time |
